Results published in ChEMBL document CHEMBL2385026, “Identification of C-2 hydroxyethyl imidazopyrrolopyridines as potent JAK1 inhibitors with favorable physicochemical properties and high selectivity over JAK2” (J Med Chem, 2013).
pEC50, pIC50, pKi: −log10 of the molar value. Values after ≈ are worked out from the molar mass of the structure shown.

What was measured:
[1] = target: T1, Tyrosine-protein kinase JAK1 (Homo sapiens, UniProt P23458)
[2] = target: T2, Non-receptor tyrosine-protein kinase TYK2 (Homo sapiens, UniProt P29597)
T2 sequence (P29597 whole entry): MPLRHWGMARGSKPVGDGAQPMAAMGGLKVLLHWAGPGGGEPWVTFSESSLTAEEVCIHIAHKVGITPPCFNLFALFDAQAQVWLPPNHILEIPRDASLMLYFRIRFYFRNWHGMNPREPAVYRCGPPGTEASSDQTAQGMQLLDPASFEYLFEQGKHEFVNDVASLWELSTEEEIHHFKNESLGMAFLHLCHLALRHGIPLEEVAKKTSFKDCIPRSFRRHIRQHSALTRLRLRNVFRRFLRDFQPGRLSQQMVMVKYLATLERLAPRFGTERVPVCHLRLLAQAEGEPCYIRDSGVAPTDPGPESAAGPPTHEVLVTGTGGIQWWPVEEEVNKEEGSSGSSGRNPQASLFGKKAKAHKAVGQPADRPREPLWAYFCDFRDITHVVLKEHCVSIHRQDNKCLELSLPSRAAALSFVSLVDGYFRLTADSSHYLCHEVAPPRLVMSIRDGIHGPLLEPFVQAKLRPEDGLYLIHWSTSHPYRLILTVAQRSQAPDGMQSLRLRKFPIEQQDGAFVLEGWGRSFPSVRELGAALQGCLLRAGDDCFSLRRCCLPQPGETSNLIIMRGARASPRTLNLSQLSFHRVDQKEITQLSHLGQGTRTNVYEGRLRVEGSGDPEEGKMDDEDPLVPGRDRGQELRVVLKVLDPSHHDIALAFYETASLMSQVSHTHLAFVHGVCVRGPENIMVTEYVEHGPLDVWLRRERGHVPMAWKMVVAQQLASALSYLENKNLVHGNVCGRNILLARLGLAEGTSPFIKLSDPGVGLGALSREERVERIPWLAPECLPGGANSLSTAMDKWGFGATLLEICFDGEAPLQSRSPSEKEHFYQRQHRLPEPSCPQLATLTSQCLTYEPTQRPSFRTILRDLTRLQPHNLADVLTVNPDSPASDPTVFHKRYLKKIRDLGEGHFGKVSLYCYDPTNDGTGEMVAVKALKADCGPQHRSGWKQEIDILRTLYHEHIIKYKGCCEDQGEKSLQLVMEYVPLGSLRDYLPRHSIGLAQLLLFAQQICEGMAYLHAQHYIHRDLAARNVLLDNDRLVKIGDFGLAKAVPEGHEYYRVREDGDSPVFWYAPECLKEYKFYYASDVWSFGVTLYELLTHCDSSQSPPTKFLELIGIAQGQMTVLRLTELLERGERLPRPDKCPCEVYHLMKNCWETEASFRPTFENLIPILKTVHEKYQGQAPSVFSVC

[3] = Apparent permeability across basolateral to apical side in dog MDCK cells; assay type: ADME, cell-based, Canis lupus familiaris
[4] = Hepatic clearance in human hepatocytes after 1 to 4 hrs by LC/MS/MS analysis; assay type: ADME, cell-based, Liver, Hepatocyte
[5] = target: T2, Non-receptor tyrosine-protein kinase TYK2; remark: listed apart in the source
[6] = Cmax in Beagle dog at 2 mg/kg, po by LC/MS/MS analysis; assay type: ADME, organism-based, Canis lupus familiaris; parameters: dose 2 mg/kg, route oral; conditions: in vivo
[7] = Metabolic stability in monkey hepatocytes assessed as hepatic clearance; assay type: ADME, cell-based, Macaca mulatta, Liver, Hepatocyte; conditions: rhesus monkey
[8] = Metabolic stability in dog hepatocytes assessed as hepatic clearance; assay type: ADME, cell-based, Canis lupus familiaris, Liver, Hepatocyte
[9] = Thermodynamic solubility in aqueous buffer at pH 7.4; assay type: physicochemical; conditions: read-out: Therm_solubility
[10] = target: T1, Tyrosine-protein kinase JAK1; remark: listed apart in the source
[11] = Half life in cynomolgus monkey at 0.4 mg/kg, iv by LC/MS/MS analysis; assay type: ADME, organism-based, Macaca fascicularis; parameters: dose 0.4 mg/kg, route intravenous; conditions: in vivo
[12] = Plasma protein binding in rat; assay type: ADME, cell-free; conditions: read-out: PPB (converted)
Cytochrome P450 2D6 = Cytochrome P450 2D6 (Homo sapiens, UniProt P10635)
Sequence of Cytochrome P450 2D6 (P10635 whole entry): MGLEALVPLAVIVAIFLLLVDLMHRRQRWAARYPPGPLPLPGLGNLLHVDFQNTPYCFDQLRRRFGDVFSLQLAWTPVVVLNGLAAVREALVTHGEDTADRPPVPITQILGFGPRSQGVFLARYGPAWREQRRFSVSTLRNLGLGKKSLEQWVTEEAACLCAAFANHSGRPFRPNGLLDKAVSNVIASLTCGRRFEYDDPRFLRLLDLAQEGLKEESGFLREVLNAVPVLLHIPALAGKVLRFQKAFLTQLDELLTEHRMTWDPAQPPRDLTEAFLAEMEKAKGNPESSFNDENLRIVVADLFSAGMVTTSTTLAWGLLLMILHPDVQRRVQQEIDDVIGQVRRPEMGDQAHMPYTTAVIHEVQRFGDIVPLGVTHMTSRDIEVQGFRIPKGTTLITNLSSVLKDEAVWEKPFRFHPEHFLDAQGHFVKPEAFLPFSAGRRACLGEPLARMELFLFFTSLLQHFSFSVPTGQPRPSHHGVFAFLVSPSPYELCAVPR

[13] = Plasma protein binding in dog; assay type: ADME, cell-free, Canis lupus familiaris; conditions: read-out: PPB (converted)
Cytochrome P450 3A4 [14] = target: T3, Cytochrome P450 3A4 (Homo sapiens, UniProt P08684); assay: Reversible inhibition of CYP3A4 in human liver microsomes using testosterone as substrate by LC/MS/MS analysis; assay type: ADME, Microsome
T3 sequence (P08684 whole entry): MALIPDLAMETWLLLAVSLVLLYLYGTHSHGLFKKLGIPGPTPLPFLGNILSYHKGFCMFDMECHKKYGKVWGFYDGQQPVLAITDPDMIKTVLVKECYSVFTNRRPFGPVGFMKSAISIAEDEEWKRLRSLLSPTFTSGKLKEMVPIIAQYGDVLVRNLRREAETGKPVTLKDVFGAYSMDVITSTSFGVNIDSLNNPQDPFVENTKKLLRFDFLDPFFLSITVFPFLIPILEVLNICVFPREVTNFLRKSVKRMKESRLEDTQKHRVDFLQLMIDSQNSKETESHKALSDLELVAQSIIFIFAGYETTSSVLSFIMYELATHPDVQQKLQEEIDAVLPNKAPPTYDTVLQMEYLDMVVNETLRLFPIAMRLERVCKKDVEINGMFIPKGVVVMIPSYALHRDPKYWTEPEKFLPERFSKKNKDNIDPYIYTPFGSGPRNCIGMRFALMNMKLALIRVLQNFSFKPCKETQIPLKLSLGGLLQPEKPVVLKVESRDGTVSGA

[15] = AUC in Sprague-Dawley rat at 2 mg/kg, po by LC/MS/MS analysis; assay type: ADME, organism-based; parameters: dose 2 mg/kg, route oral; conditions: plasma
[16] = AUC in Beagle dog at 2 mg/kg, po by LC/MS/MS analysis; assay type: ADME, organism-based, Canis lupus familiaris; parameters: dose 2 mg/kg, route oral; conditions: plasma
[17] = AUC in cynomolgus monkey at 2 mg/kg, po by LC/MS/MS analysis; assay type: ADME, organism-based, Macaca fascicularis; parameters: dose 2 mg/kg, route oral; conditions: plasma
[18] = Plasma protein binding in cynomolgus monkey; assay type: ADME, cell-free, Macaca fascicularis; conditions: read-out: PPB (converted)
[19] = Clearance in Sprague-Dawley rat at 0.4 mg/kg, iv by LC/MS/MS analysis; assay type: ADME, organism-based; parameters: dose 0.4 mg/kg, route intravenous; conditions: in vivo
[20] = Half life in Sprague-Dawley rat at 0.4 mg/kg, iv by LC/MS/MS analysis; assay type: ADME, organism-based; parameters: dose 0.4 mg/kg, route intravenous; conditions: in vivo
[21] = Oral bioavailability in cynomolgus monkey at 2 mg/kg by LC/MS/MS analysis; assay type: ADME, organism-based, Macaca fascicularis; conditions: in vivo
[22] = Clearance in Beagle dog at 0.4 mg/kg, iv by LC/MS/MS analysis; assay type: ADME, organism-based, Canis lupus familiaris; parameters: dose 0.4 mg/kg, route intravenous; conditions: in vivo
Cytochrome P450 3A4 [23] = target: T3, Cytochrome P450 3A4; assay: Reversible inhibition of CYP3A4 in human liver microsomes using midazolam as substrate by LC/MS/MS analysis; assay type: ADME, Microsome
[24] = target: Voltage-gated inwardly rectifying potassium channel KCNH2 (Homo sapiens, UniProt Q12809)
[25] = Cmax in Sprague-Dawley rat at 2 mg/kg, po by LC/MS/MS analysis; assay type: ADME, organism-based; parameters: dose 2 mg/kg, route oral; conditions: in vivo
[26] = Half life in Beagle dog at 0.4 mg/kg, iv by LC/MS/MS analysis; assay type: ADME, organism-based, Canis lupus familiaris; parameters: dose 0.4 mg/kg, route intravenous; conditions: in vivo
Rattus norvegicus = assay: (§1) Oral bioavailability in Sprague-Dawley rat at 2 mg/kg by LC/MS/MS analysis; assay type: ADME, organism-based; conditions: in vivo
Cytochrome P450 2C9 = Cytochrome P450 2C9 (Homo sapiens, UniProt P11712)
Sequence of Cytochrome P450 2C9 (P11712 whole entry): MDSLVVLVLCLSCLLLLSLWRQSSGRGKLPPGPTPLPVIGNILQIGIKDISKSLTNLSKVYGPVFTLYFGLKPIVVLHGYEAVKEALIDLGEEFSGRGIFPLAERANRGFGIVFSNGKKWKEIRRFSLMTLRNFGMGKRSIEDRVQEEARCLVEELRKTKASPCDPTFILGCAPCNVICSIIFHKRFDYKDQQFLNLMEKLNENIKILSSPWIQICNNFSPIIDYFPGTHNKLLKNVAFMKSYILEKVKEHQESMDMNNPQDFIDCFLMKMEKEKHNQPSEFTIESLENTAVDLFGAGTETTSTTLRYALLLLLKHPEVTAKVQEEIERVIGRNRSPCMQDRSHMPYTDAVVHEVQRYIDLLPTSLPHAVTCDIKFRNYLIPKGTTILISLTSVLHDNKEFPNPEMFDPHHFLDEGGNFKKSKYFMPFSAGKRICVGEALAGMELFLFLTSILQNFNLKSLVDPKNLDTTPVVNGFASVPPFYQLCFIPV

Cytochrome P450 2C19 = Cytochrome P450 2C19 (Homo sapiens, UniProt P33261)
Sequence of Cytochrome P450 2C19 (P33261 whole entry): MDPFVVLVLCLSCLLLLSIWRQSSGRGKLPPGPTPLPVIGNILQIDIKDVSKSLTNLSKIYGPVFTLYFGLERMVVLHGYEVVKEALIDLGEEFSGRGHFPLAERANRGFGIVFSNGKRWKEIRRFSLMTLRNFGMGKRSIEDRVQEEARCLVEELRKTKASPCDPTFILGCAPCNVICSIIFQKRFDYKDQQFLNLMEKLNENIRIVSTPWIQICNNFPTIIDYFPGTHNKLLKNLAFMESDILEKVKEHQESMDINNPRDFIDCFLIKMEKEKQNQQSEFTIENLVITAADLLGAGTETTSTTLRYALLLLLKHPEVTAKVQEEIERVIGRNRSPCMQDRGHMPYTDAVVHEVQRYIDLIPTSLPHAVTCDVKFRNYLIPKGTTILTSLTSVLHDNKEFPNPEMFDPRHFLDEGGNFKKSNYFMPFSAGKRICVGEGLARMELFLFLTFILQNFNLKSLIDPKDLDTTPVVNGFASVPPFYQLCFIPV

[27] = Cmax in cynomolgus monkey at 2 mg/kg, po by LC/MS/MS analysis; assay type: ADME, organism-based, Macaca fascicularis; parameters: dose 2 mg/kg, route oral; conditions: in vivo
[28] = Apparent permeability across apical to basolateral side in dog MDCK cells; assay type: ADME, cell-based, Canis lupus familiaris
Cytochrome P450 1A2 = target: T4, Cytochrome P450 1A2 (Homo sapiens, UniProt P05177); assay: Reversible inhibition of CYP1A2 in human liver microsomes using phenacetin as substrate by LC/MS/MS analysis; assay type: ADME, Microsome
T4 sequence (P05177 whole entry): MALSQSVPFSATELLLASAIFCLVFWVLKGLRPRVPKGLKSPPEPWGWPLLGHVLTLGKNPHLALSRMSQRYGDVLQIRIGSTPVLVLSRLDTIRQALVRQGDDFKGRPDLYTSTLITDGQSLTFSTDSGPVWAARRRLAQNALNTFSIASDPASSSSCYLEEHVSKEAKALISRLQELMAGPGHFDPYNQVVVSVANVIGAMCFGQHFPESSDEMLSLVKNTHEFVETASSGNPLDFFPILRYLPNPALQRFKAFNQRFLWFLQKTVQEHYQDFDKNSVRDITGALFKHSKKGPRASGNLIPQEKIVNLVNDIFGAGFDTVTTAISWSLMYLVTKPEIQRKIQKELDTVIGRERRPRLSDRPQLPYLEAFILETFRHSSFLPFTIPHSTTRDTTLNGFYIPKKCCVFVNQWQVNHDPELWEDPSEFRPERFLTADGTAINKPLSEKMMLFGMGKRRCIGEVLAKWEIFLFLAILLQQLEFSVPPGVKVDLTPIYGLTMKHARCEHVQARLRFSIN

[29] = Thermodynamic solubility in aqueous buffer at pH 2; assay type: physicochemical; conditions: read-out: Therm_solubility
[30] = Oral bioavailability in Beagle dog at 2 mg/kg by LC/MS/MS analysis; assay type: ADME, organism-based, Canis lupus familiaris; conditions: Beagle, in vivo
[31] = Hepatic clearance in human liver microsomes by LC/MS/MS analysis; assay type: ADME, Microsome
[32] = Metabolic stability in rat hepatocytes assessed as hepatic clearance; assay type: ADME, cell-based, Liver, Hepatocyte
[33] = Clearance in cynomolgus monkey at 0.4 mg/kg, iv by LC/MS/MS analysis; assay type: ADME, organism-based, Macaca fascicularis; parameters: dose 0.4 mg/kg, route intravenous; conditions: in vivo
[34] = target: T1, Tyrosine-protein kinase JAK1; remark: listed apart in the source
[35] = target: Tyrosine-protein kinase JAK3 (Homo sapiens, UniProt P52333)
[36] = target: Leucine-rich repeat serine/threonine-protein kinase 2 (Homo sapiens) (UniProt Q5S007); assay: Inhibition of LRRK2 (unknown origin) at 1 uM
[37] = as §1; assay type: ADME, organism-based; conditions: Sprague-Dawley, in vivo
[38] = target: Macrophage colony-stimulating factor 1 receptor (Homo sapiens) (UniProt P07333); assay: Inhibition of CSF1R (unknown origin) at 1 uM

T1 sequence (P23458 whole entry): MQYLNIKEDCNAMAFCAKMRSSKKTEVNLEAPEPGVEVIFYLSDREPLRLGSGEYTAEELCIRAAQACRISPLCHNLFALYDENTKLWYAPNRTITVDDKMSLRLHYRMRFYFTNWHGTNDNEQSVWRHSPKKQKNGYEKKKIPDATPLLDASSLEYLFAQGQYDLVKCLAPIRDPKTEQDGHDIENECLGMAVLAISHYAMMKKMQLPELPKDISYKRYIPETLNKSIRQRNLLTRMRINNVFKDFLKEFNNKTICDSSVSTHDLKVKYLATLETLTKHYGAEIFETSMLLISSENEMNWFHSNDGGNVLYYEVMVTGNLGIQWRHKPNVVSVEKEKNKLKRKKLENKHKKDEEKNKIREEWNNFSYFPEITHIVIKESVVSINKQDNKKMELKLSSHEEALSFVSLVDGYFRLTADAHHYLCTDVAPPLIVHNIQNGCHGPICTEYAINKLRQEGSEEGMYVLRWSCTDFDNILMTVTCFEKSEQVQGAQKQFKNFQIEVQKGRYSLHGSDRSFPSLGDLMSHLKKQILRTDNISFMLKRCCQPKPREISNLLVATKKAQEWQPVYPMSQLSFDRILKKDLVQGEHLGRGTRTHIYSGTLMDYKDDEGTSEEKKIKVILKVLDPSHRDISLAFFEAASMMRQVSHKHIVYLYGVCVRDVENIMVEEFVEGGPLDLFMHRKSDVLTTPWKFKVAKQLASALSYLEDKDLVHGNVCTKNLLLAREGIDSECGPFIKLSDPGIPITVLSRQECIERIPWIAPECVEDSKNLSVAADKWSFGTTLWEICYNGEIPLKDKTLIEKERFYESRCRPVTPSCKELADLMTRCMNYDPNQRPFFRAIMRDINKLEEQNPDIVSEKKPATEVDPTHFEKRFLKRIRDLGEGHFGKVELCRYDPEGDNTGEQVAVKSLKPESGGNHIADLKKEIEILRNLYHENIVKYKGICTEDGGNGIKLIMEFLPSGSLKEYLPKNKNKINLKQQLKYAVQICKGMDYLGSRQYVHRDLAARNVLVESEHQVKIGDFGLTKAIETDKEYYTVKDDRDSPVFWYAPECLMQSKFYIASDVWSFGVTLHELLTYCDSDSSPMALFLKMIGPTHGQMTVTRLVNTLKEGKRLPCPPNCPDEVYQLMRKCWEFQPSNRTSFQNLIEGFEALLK

Row | pEC50 [1] | pKi [2] | Papp B→A [3] [×10⁻⁶ cm/s] | CLhep predicted [4] [mL/min/kg] | pEC50 [5] | Cmax [6] [nM] | CLhep predicted [7] [mL/min/kg] | CLhep predicted [8] [mL/min/kg] | solubility thermodynamic [9] [mM] | pKi [10] | fraction unbound [12] | pIC50 (Cytochrome P450 2D6) | fraction unbound [13] | pIC50 (Cytochrome P450 3A4 [14]) | AUC [15] [µM·h] | AUC [16] [µM·h] | fraction unbound [18] | clearance [19] [mL/min/kg] | half-life [20] [h] | clearance [22] [mL/min/kg] | SMILES | other results
1 | 6.96 | 7.51 | 8.6 | 1.9 | < 5.24 | 9800 | 21 | 4.9 | > 4 | 8.55 | 0.61 | < 5.00 | 0.39 | < 5.00 | 10.7 | 65.7 | 0.46 | 22 | 1.5 | 2.1 | C[C@@H](O)c1nc2cnc3[nH]ccc3c2n1[C@H]1CCCOC1 | half-life [11]: 1.1 h; AUC [17]: 4.3 µM·h; bioavailability [21]: 70%; pIC50 (Cytochrome P450 3A4 [23]): < 5.00; pIC50 [24]: < 4.00; Cmax [25]: 5200 nM; half-life [26]: 5.7 h; F (Rattus norvegicus): 197%; pIC50 (Cytochrome P450 2C9): < 5.00; pIC50 (Cytochrome P450 2C19): < 5.00; Cmax [27]: 1800 nM; Papp A→B [28]: 7.6 ×10⁻⁶ cm/s; pIC50 (Cytochrome P450 1A2): < 5.00; solubility thermodynamic [29]: > 4 mM; bioavailability [30]: 111%; CLhep predicted [31]: 2 mL/min/kg; CLhep predicted [32]: 2.3 mL/min/kg; clearance [33]: 19 mL/min/kg; pEC50 [34]: 6.74
2 | 7.15 | 7.70 | 18 | 3.6 | 5.66 | 3000 | 27 | 9.8 | 0.07 (≈ 25.7 µg/mL) | 8.70 | 0.51 | < 5.00 | 0.41 | < 5.00 | 1 | 9 | 0.44 | 55 | 1.1 | 14 | C[C@@H](O)c1nc2cnc3[nH]ccc3c2n1[C@H]1CC[C@@H](NCC(F)(F)F)C1 | pKi [35]: 7.28; inhibition [36]: 72%; pIC50 (Cytochrome P450 3A4 [23]): < 5.00; Cmax [25]: 980 nM; half-life [26]: 1.2 h; bioavailability [37]: 61%; inhibition [38]: 75%; pIC50 (Cytochrome P450 2C9): < 5.00; pIC50 (Cytochrome P450 2C19): < 5.00; Papp A→B [28]: 10 ×10⁻⁶ cm/s; pIC50 (Cytochrome P450 1A2): < 5.00; solubility thermodynamic [29]: > 4 mM; bioavailability [30]: 131%; CLhep predicted [31]: 3.8 mL/min/kg; CLhep predicted [32]: 14 mL/min/kg; pEC50 [34]: 7.29
